Assay results: PubChem BioAssay (NCI)
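A five-concentration, 48-hour dose response in 96-well plates underlies each endpoint, interpolated linearly between surrounding concentrations. TGI marks complete inhibition of growth.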

How the values were obtained:
Assay in all cases: NCI anticancer screen, dose series, 48 h
SF-268 CNS = system: SF-268 CNS
K-562 leukemia = system: K-562 leukemia
SK-MEL-28 melanoma = system: SK-MEL-28 melanoma
OVCAR-4 ovarian = system: OVCAR-4 ovarian
MDA-MB-231 breast = system: MDA-MB-231 breast
UACC-62 melanoma = system: UACC-62 melanoma
SN12C renal = system: SN12C renal
HOP-62 NSCLC = system: HOP-62 NSCLC
HCT-15 colon = system: HCT-15 colon
SW-620 colon = system: SW-620 colon
EKVX NSCLC = system: EKVX NSCLC
U251 CNS = system: U251 CNS
OVCAR-3 ovarian = system: OVCAR-3 ovarian
MDA-MB-435 = system: MDA-MB-435
HCT-116 colon = system: HCT-116 colon
TK-10 renal = system: TK-10 renal
HOP-92 NSCLC = system: HOP-92 NSCLC
RXF 393 renal = system: RXF 393 renal
NCI-H460 lung = system: NCI-H460 lung
CAKI-1 renal = system: CAKI-1 renal
SK-MEL-2 melanoma = system: SK-MEL-2 melanoma
NCI-H23 lung = system: NCI-H23 lung
CCRF-CEM leukemia = system: CCRF-CEM leukemia
SK-MEL-5 melanoma = system: SK-MEL-5 melanoma
SNB-75 CNS = system: SNB-75 CNS
IGROV1 ovarian = system: IGROV1 ovarian
ACHN renal = system: ACHN renal
LOX IMVI melanoma = system: LOX IMVI melanoma
MCF7 breast = system: MCF7 breast
DU-145 prostate = system: DU-145 prostate
UO-31 renal = system: UO-31 renal
BT-549 breast = system: BT-549 breast
SK-OV-3 ovarian = system: SK-OV-3 ovarian
SNB-19 CNS = system: SNB-19 CNS
PC-3 prostate = system: PC-3 prostate
MOLT-4 leukemia = system: MOLT-4 leukemia
HS 578T breast = system: HS 578T breast
MALME-3M melanoma = system: MALME-3M melanoma
NCI/ADR-RES ovarian = system: NCI/ADR-RES ovarian
786-0 renal = system: 786-0 renal
M14 melanoma = system: M14 melanoma
NCI-H522 lung = system: NCI-H522 lung
A498 renal = system: A498 renal
SR leukemia = system: SR leukemia
OVCAR-5 ovarian = system: OVCAR-5 ovarian
MDA-N = system: MDA-N
SF-539 CNS = system: SF-539 CNS
OVCAR-8 ovarian = system: OVCAR-8 ovarian
A549 NSCLC = system: A549 NSCLC
NCI-H226 lung = system: NCI-H226 lung
RPMI-8226 leukemia = system: RPMI-8226 leukemia
COLO 205 colon = system: COLO 205 colon
SF-295 CNS = system: SF-295 CNS
T-47D breast = system: T-47D breast
HT29 colon = system: HT29 colon
KM12 colon = system: KM12 colon
HCC-2998 colon = system: HCC-2998 colon

With `COc1ccc2nc(-c3ccc(O)cc3)cn2c1` the TGI (SF-268 CNS) was over 100 µM, the TGI (K-562 leukemia) was over 100 µM and the TGI (SK-MEL-28 melanoma) was over 100 µM. It also gave a TGI (OVCAR-4 ovarian) of over 100 µM, a TGI (MDA-MB-231 breast) of over 100 µM and a TGI (UACC-62 melanoma) of 86.2 µM. It also gave a TGI (SN12C renal) of over 100 µM, a TGI (HOP-62 NSCLC) of over 100 µM and a TGI (HCT-15 colon) of over 100 µM. The TGI (SW-620 colon) was over 100 µM, the TGI (EKVX NSCLC) was over 100 µM and the TGI (U251 CNS) was over 100 µM. It also gave a TGI (OVCAR-3 ovarian) of over 100 µM, a TGI (MDA-MB-435) of over 100 µM and a TGI (HCT-116 colon) of over 100 µM. For the same compound, the TGI (TK-10 renal) was over 100 µM, the TGI (HOP-92 NSCLC) was over 100 µM and the TGI (RXF 393 renal) was over 100 µM. It also gave a TGI (NCI-H460 lung) of over 100 µM, a TGI (CAKI-1 renal) of over 100 µM and a TGI (SK-MEL-2 melanoma) of over 100 µM. For the same compound, the TGI (NCI-H23 lung) was over 100 µM, the TGI (CCRF-CEM leukemia) was over 100 µM and the TGI (SK-MEL-5 melanoma) was 62.6 µM. The TGI (SNB-75 CNS) was over 100 µM, the TGI (IGROV1 ovarian) was over 100 µM and the TGI (ACHN renal) was over 100 µM. For the same compound, the TGI (LOX IMVI melanoma) was over 100 µM, the TGI (MCF7 breast) was over 100 µM and the TGI (DU-145 prostate) was over 100 µM. It also gave a TGI (UO-31 renal) of over 100 µM, a TGI (BT-549 breast) of over 100 µM and a TGI (SK-OV-3 ovarian) of over 100 µM. The TGI (SNB-19 CNS) was over 100 µM, the TGI (PC-3 prostate) was over 100 µM and the TGI (MOLT-4 leukemia) was over 100 µM. It also gave a TGI (HS 578T breast) of over 100 µM, a TGI (MALME-3M melanoma) of over 100 µM and a TGI (NCI/ADR-RES ovarian) of over 100 µM. It also gave a TGI (786-0 renal) of over 100 µM, a TGI (M14 melanoma) of over 100 µM and a TGI (NCI-H522 lung) of over 100 µM. For the same compound, the TGI (A498 renal) was over 100 µM, the TGI (SR leukemia) was over 100 µM and the TGI (OVCAR-5 ovarian) was over 100 µM. For the same compound, the TGI (MDA-N) was over 100 µM, the TGI (SF-539 CNS) was over 100 µM and the TGI (OVCAR-8 ovarian) was over 100 µM. It also gave a TGI (A549 NSCLC) of over 100 µM, a TGI (NCI-H226 lung) of over 100 µM and a TGI (RPMI-8226 leukemia) of over 100 µM. The TGI (COLO 205 colon) was over 100 µM, the TGI (SF-295 CNS) was over 100 µM and the TGI (T-47D breast) was over 100 µM. The TGI (HT29 colon) was over 100 µM and the TGI (KM12 colon) was over 100 µM.
`COc1ccc(N=C2C(=Nc3ccc(OC)cc3)N(c3ccccc3[N+](=O)[O-])C(=S)N2c2ccc(OC)cc2)cc1` was tested, and the TGI (SF-268 CNS) was over 100 µM, the TGI (K-562 leukemia) was over 100 µM and the TGI (SK-MEL-28 melanoma) was over 100 µM. For the same compound, the TGI (MDA-MB-231 breast) was 90.9 µM, the TGI (UACC-62 melanoma) was over 100 µM and the TGI (SN12C renal) was over 100 µM. It also gave a TGI (HOP-62 NSCLC) of over 100 µM, a TGI (HCT-15 colon) of over 100 µM and a TGI (SW-620 colon) of over 100 µM. The TGI (EKVX NSCLC) was over 100 µM, the TGI (U251 CNS) was over 100 µM and the TGI (OVCAR-3 ovarian) was over 100 µM. The TGI (MDA-MB-435) was over 100 µM, the TGI (HCT-116 colon) was over 100 µM and the TGI (TK-10 renal) was over 100 µM. The TGI (HOP-92 NSCLC) was over 100 µM, the TGI (RXF 393 renal) was over 100 µM and the TGI (CAKI-1 renal) was over 100 µM. For the same compound, the TGI (SK-MEL-2 melanoma) was over 100 µM, the TGI (NCI-H23 lung) was over 100 µM and the TGI (SK-MEL-5 melanoma) was over 100 µM. The TGI (SNB-75 CNS) was over 100 µM, the TGI (HCC-2998 colon) was over 100 µM and the TGI (IGROV1 ovarian) was over 100 µM. It also gave a TGI (ACHN renal) of over 100 µM, a TGI (MCF7 breast) of over 100 µM and a TGI (DU-145 prostate) of over 100 µM. The TGI (UO-31 renal) was over 100 µM, the TGI (BT-549 breast) was over 100 µM and the TGI (SK-OV-3 ovarian) was over 100 µM. The TGI (SNB-19 CNS) was over 100 µM, the TGI (PC-3 prostate) was over 100 µM and the TGI (MOLT-4 leukemia) was over 100 µM. The TGI (HS 578T breast) was over 100 µM, the TGI (NCI/ADR-RES ovarian) was over 100 µM and the TGI (786-0 renal) was over 100 µM. It also gave a TGI (M14 melanoma) of over 100 µM, a TGI (NCI-H522 lung) of over 100 µM and a TGI (SR leukemia) of over 100 µM. The TGI (OVCAR-5 ovarian) was over 100 µM, the TGI (MDA-N) was over 100 µM and the TGI (SF-539 CNS) was over 100 µM. For the same compound, the TGI (OVCAR-8 ovarian) was over 100 µM, the TGI (A549 NSCLC) was over 100 µM and the TGI (NCI-H226 lung) was over 100 µM. For the same compound, the TGI (RPMI-8226 leukemia) was over 100 µM, the TGI (COLO 205 colon) was 30.8 µM and the TGI (SF-295 CNS) was over 100 µM. For the same compound, the TGI (T-47D breast) was over 100 µM and the TGI (KM12 colon) was over 100 µM.
